The text below walks through data of patent US20070191363A1, “Heteroalkyl-substituted biphenyl-4-carboxylic acid arylamide analogues” (Neurogen Corporation, priority 2004, published 2007).

The term IC50 denotes the midpoint of a concentration-inhibition curve. What is called Ki is the dissociation constant of the complex between target and ligand, obtained from inhibition or displacement.

T1 sequence (Q8NER1 whole entry): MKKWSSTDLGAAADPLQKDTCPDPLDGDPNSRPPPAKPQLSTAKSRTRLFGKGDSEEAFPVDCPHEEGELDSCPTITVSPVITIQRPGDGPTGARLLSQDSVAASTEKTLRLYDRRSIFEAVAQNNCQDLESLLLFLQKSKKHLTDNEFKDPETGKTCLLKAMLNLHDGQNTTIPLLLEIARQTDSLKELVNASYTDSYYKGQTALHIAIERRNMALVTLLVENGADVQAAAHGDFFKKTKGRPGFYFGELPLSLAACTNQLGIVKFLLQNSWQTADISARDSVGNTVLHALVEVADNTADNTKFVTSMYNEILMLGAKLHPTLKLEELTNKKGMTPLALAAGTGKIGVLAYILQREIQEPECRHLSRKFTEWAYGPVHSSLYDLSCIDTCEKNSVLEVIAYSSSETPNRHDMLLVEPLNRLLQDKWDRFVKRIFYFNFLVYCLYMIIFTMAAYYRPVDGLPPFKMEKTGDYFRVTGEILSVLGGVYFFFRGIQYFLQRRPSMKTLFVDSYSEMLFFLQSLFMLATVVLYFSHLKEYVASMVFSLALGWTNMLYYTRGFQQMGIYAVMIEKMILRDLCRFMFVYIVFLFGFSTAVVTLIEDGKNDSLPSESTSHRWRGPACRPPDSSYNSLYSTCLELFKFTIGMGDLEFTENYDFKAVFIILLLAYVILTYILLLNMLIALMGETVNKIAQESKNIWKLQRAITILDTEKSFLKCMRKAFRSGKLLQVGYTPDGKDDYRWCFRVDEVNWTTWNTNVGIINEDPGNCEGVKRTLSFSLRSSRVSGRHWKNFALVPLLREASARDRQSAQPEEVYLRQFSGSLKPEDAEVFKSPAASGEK

The first experiment addresses T1, human capsaicin receptor (Homo sapiens, UniProt Q8NER1).
T1 construct: expressed in transfected cells
In words: Calcium mobilization assay, determination of antagonist activity. In kind it is cell-based. The conditions noted are these: 50% decrease in the fluorescence response of cells exposed to capsaicin; cells expressing human capsaicin receptor. As to the method: A cDNA encoding full length human capsaicin receptor (SEQ ID NO:1, 2 or 3 of U.S. Pat. No. 6,482,611) is subcloned in the plasmid pBK-CMV (Stratagene, La Jolla, Calif.) for recombinant expression in mammalian cells.
Human embryonic kidney (HEK293) cells are transfected with the pBK-CMV expression construct encoding the full length human capsaicin receptor using standard methods. The transfected cells are selected for two weeks in media containing G418 (400 μg/ml) to obtain a pool of stably transfected cells. Independent clones are isolated from this pool by limiting dilution to obtain clonal stable cell lines for use in subsequent experiments.
This Example illustrates a representative calcium mobilization assay for use in monitoring the response of cells expressing capsaicin receptor to capsaicin and other vanilloid ligands of the capsaicin receptor, as well as for evaluating test compounds for agonist and antagonist activity.
(§1) Cells transfected with expression plasmids (as described in Example 3) and thereby expressing human capsaicin receptor are seeded and grown to 70-90% confluency in FALCON black-walled, clear-bottomed 96-well plates (#3904, BECTON-DICKINSON, Franklin Lakes, N.J.). The culture medium is emptied from the 96 well plates and FLUO-3 AM calcium sensitive dye (Molecular Probes, Eugene, Oreg.) is added to each well (dye solution: 1 mg FLUO-3 AM, 440 μL DMSO and 440 μl 20% pluronic acid in DMSO, diluted 1:250 in Krebs-Ringer HEPES (KRH) buffer (25 mM HEPES, 5 mM KCl, 0.96 mM NaH2PO4, 1 mM MgSO4, 2 mM CaCl2, 5 mM glucose, 1 mM probenecid, pH 7.4), 50 μl diluted solution per well). Plates are covered with aluminum foil and incubated at 37° C. for 1-2 hours in an environment containing 5% CO2. After the incubation, the dye is emptied from the plates, and the cells are washed once with KRH buffer, and resuspended in KRH buffer.
To measure the ability of a test compound to agonize or antagonize a calcium mobilization response in cells expressing capsaicin receptors to capsaicin or other vanilloid agonist, the EC50 of the agonist capsaicin is first determined. An additional 20 μl of KRH buffer and 1 μl DMSO is added to each well of cells, prepared as described above. 100 μl capsaicin in KRH buffer is automatically transferred by the FLIPR instrument to each well. Capsaicin-induced calcium mobilization is monitored using either FLUOROSKAN ASCENT (Labsystems; Franklin, Mass.) or FLIPR (fluorometric imaging plate reader system; Molecular Devices, Sunnyvale, Calif.) instruments. Data obtained between 30 and 60 seconds after agonist application are used to generate an 8-point concentration response curve, with final capsaicin concentrations of 1 nM to 3 μM. […] software (Synergy Software, Reading, Pa.) is used to fit the data to the equation: y=a*(1/(1+(b/x)c)) to determine the 50% excitatory concentration (EC50) for the response. In this equation, y is the maximum fluorescence signal, x is the concentration of the agonist or antagonist (in this case, capsaicin), a is the Emax, b corresponds to the EC50 value and c is the Hill coefficient. Determination of Agonist Activity
Test compounds are dissolved in DMSO, diluted in 20 μl KRH buffer so that the final concentration of test compounds in the assay well is between 1 μM and 5 μM, and added to cells prepared as described above. The 96 well plates containing prepared cells and test compounds are incubated in the dark, at room temperature for 0.5 to 6 hours. It is important that the incubation not continue beyond 6 hours. Just prior to determining the fluorescence response, 100 μl capsaicin in KRH buffer at twice the EC50 concentration determined as described above is automatically added by the FLIPR instrument to each well of the 96 well plate for a final sample volume of 200 μl and a final capsaicin concentration equal to the EC50. The final concentration of test compounds in the assay wells is between 1 μM and 5 μM.
For the compound `C[C@@H]1CN(CCOc2cc(NC(=O)c3ccc(-c4ncccc4C(F)(F)F)cc3)ccc2C(C)(C)C)C[C@H](C)O1` [Compound 3, N-{4-tert-Butyl-3-[2-(2,6-dimethyl-morpholin-4-yl)-ethoxy]-phenyl}-4-(3-trifluoromethyl-pyridin-2-yl)-benzamide (cis)], the IC50 is no more than 1 µM.

Take `CC(C)(C)c1ccc(NC(=O)c2ccc(-c3ncccc3C(F)(F)F)cc2O)cc1OCCO` [Compound 7, N-[4-tert-Butyl-3-(2-hydroxy-ethoxy)-phenyl]-2-hydroxy-4-(3-trifluoromethyl-pyridin-2-yl)-benzamide]: the IC50 is no more than 1 µM.

`CC(C)(C)c1ccc(NC(=O)c2ccc(-c3ncccc3C(F)(F)F)cc2)cc1OCCO` [Compound 1, N-[4-tert-Butyl-3-(2-hydroxy-ethoxy)-phenyl]-4-(3-trifluoromethyl-pyridin-2-yl)-benzamide]: the concentration for half-maximal inhibition (IC50) is no more than 1 µM.

With `CC1(C)CCCN(CCOc2cc(NC(=O)c3ccc(-c4ncccc4C(F)(F)F)cc3)ccc2C(C)(C)C)C1` [Compound 6, N-{4-tert-Butyl-3-[2-(3,3-dimethyl-piperidin-1-yl)-ethoxy]-phenyl}-4-(3-trifluoromethyl-pyridin-2-yl)-benzamide], the IC50 is no more than 1 µM.

Turning to `CC(C)(C)c1ccc(NC(=O)c2ccc(-c3ncccc3C(F)(F)F)cc2)cc1OCCN1CCOCC1` [Compound 2, N-[4-tert-Butyl-3-(2-morpholin-4-yl-ethoxy)-phenyl]-4-(3-trifluoromethyl-pyridin-2-yl)-benzamide], the IC50 was no more than 1 µM.

In the case of `CC(C)(C)c1ccc(NC(=O)c2ccc(-c3ncccc3C(F)(F)F)cc2)cc1OCCN1CCCCC1` [Compound 4, N-[4-tert-Butyl-3-(2-piperidin-1-yl-ethoxy)-phenyl]-4-(3-trifluoromethyl-pyridin-2-yl)-benzamide], the 50% inhibitory concentration (IC50) was no more than 1 µM.

As for `COCCN(CCOC)CCOc1cc(NC(=O)c2ccc(-c3ncccc3C(F)(F)F)cc2)ccc1C(C)(C)C` [Compound 5, N-(3-{2-[Bis-(2-methoxy-ethyl)-amino]-ethoxy}-4-tert-butyl-phenyl)-4-(3-trifluoromethyl-pyridin-2-yl)-benzamide], the IC50 is no more than 1 µM.

Turning to `CC(C)(C)c1ccc(NC(=O)c2ccc(-c3ncccc3C(F)(F)F)cc2O)cc1OCCN1CCCCC1` [Compound 9, N-[4-tert-Butyl-3-(2-piperidin-1-yl-ethoxy)-phenyl]-2-hydroxy-4-(3-trifluoromethyl-pyridin-2-yl)-benzamide], the IC50 is no more than 1 µM.

On to `C[C@@H]1CN(CCOc2cc(NC(=O)c3ccc(-c4ncccc4C(F)(F)F)cc3O)ccc2C(C)(C)C)C[C@H](C)O1` [Compound 8, N-{4-tert-Butyl-3-[2-(2,6-dimethyl-morpholin-4-yl)-ethoxy]-phenyl}-2-hydroxy-4-(3-trifluoromethyl-pyridin-2-yl)-benzamide (cis)], for which the IC50 is no more than 1 µM.

For a further experiment, the target named is T1, human capsaicin receptor. The experiment can be described thus: Calcium mobilization assay, capsaicin agonist response. The conditions noted are these: capsaicin positive control, calcium mobilization in cells expressing human capsaicin receptor; read-out: approximate EC90 concentration. The class given is cell-based. As to the method: as §1, with “Plates are covered with aluminum foil and incubated at 37° C. for 1-2 hours in an environment containing 5% CO2. After the incubation, the dye is emptied from the plates, and the cells are washed once with KRH buffer, and resuspended in KRH buffer.” left out
To measure the ability of a test compound to agonize or antagonize a calcium mobilization response in cells expressing capsaicin receptors to capsaicin or other vanilloid agonist, the EC50 of the agonist capsaicin is first determined. […] Capsaicin-induced calcium mobilization is monitored using either FLUOROSKAN ASCENT (Labsystems; Franklin, Mass.) or FLIPR (fluorometric imaging plate reader system; Molecular Devices, Sunnyvale, Calif.) instruments. […] In this equation, y is the maximum fluorescence signal, x is the concentration of the agonist or antagonist (in this case, capsaicin), a is the Emax, b corresponds to the EC50 value and c is the Hill coefficient. […]
Consider `COc1cc(CNC(=O)CCCC/C=C/C(C)C)ccc1O` [capsaicin], for which the EC90 was roughly 0.1 µM.

In another experiment the target is VR.
Assay: not given
Conditions: binds to VR with no more than moderate affinity; typical value; cited from earlier work.
`Cl.Cl.Cl.Cl.Cl.Cl.N.N.N.N.N.N.N.N.N.N.N.N.N.N.[O-2].[O-2].[Ru+3].[Ru+3].[Ru+4]` [ruthenium red]: the Ki is no less than 140 µM.
